Experimental data taken from patent publication US9187496B2 (priority 2009, dated 2015).
Read-outs that look alike come from different tables or passages of the source.

Experiments:
[1] = tested on: HCV genotype 4a-specific NS5A gene within the 1b-replicon; experiment: Luciferase replicon assay, NS5A-intergenotypic stable cell line genotype 4a; assay type: cell-based; conditions: Hepatitis C virus, read-out: EC50 4a
Excerpt: (§1) The nucleotide sequences of the NS5A region of genotype 2a (GenBank Accession #AB047639), genotype 3a (GenBank Accession #D17763), and genotype 4a (GenBank Accession#DQ418788) were synthesized by an outside vendor. The NS5A region of each of these genotypes included the first 11 amino acids of the protease recognition sequence of genotype 1b, as well as the last 10 amino acids of genotype 1b. The NS5A gene cassettes were excised with site specific restriction endonucleases and ligated into a ZS11-luciferase genotype 1b backbone (backbone contains the genotype 1b NS3 protease, NS4a, NS4b, and NS5b coding regions) with similarly cut restriction enzyme sites. Thus, the newly constructed plasmid contains a genotype 2a-, 3a- or 4a-specific NS5A gene within the 1b-replicon.
(§2) These new intergenotypic plasmids were used to establish stable cell lines. RNA was generated from the NS5A intergenotypic plasmids and used in conjunction with a lipofectin reagent to transfect a cured Huh7 cell line. Transfected cells were selected for with G418. After selection has occurred the stable cell lines were propagated, tested for luciferase activity, and RT-PCR with genotype specific primers (either 1a, 2a, 3a, or 4a). Stable cell lines containing the intergenotypic replicon were then fully sequenced and analysed for proper expression of NS3, NS5A and NS5B proteins.
(§3) Drug titration analysis was performed using the luciferase replicon assay described herein.
(§4) The HCV luciferase replicon assay measures the ability of a test compound to inhibit HCV replication in cell culture after 3 days of treatment in a human hepatoma cell line (Huh-7) bearing a HCV replicon containing a luciferase-neomycin phosphotransferase fusion gene. The inhibition of HCV replication was measured by quantification of luciferase protein expression. Briefly, Huh-7 cells containing either the HCV genotype 1a H77 strain or genotype 1b Conl strain subgenomic luciferase replicon (H1a-luc or Zluc, respectively) were grown in DMEM containing glucose, L-glutamine and sodium pyruvate, 10% fetal bovine serum (FBS), 100 IU/mL penicillin, 100 μg/mL streptomycin, 2 mM GlutaMAX, non-essential amino acids and 0.25 (H1a-luc) or 0.5 (Zluc) mg/mL G418. GlutaMAX was obtained from Invitrogen, Corp.; all other media reagents were obtained from Mediatech, Inc. For dose-response testing, the cells were seeded in 96-well plates at 1×10^4 (H1a-luc) or 7.5×10^3 (Zluc) cells/well in a volume of 50 μL, and incubated at 37° C./5% CO2. Three hours after plating, 50 μL of ten 5-fold serial dilutions of compound were added, and cell cultures were incubated at 37° C./5% CO2 for 72 hours. In all cases, Huh-7 cells lacking the HCV replicon served as negative control. To assess luciferase expression, the media/compound was removed from the plates and ONE-glo Luciferase assay reagent (Promega) was added to each well. The assay plates were shaken for 3 minutes at room temperature and luciferase activity for each well was measured with a 1 sec read time on the Victor^3V multilabel counter using a 700 nm cut-off filter (Perkin Elmer). EC50 values were calculated from dose response curves from the resulting best-fit equations determined by Microsoft Excel and XLfit 4.1 software.

[2] = tested on: HCV genotype 1b Conl strain subgenomic luciferase replicon (Zluc); experiment: Luciferase replicon assay, genotype 1b; assay type: cell-based; conditions: Hepatitis C virus, 72 h, read-out: EC50 1b
Protocol: as §4

[3] = tested on: HCV genotype 3a-specific NS5A gene within the 1b-replicon; experiment: Luciferase replicon assay, NS5A-intergenotypic stable cell line genotype 3a; assay type: cell-based; conditions: Hepatitis C virus, read-out: EC50 3a
Excerpt: as §1, §2, §3, §4

[4] = Cytotoxicity evaluation in luciferase replicon cells (Cell Titer 96 AQueous One); assay type: cell-based, human; conditions: human; Table 1B, cellular viability
Protocol: For cytotoxicity evaluation, H1a-luc or Zluc cells were treated with compounds as described above and cellular viability was monitored using the Cell Titer 96 AQueous One Solution Cell Proliferation Assay (Promega). Plates were then read at 490 nm in a Victor^3V 1420 multilabel counter (Perkin Elmer) and CC50 concentrations were determined using Microsoft Excel and XLfit 4.1 software.

[5] = tested on: HCV genotype 1a H77 strain (H1a-luc replicon / 1a-H77NS5a intergenotypic replicon); experiment: Luciferase replicon assay, genotype 1a; assay type: cell-based
Excerpt: To generate the 1a-H77NS5a intergenotypic plasmid, dual cut sites were inserted into the ZS11-luciferase genotype 1b backbone that would bracket the NS5a region almost in its entirety. Using PCR and 1a-H77 specific primers also containing the corresponding restriction enzyme sites, the NS5a gene was amplified from the 1a-H77 replicon. The ZS11-luciferase genotype 1b backbone and the genotype 1a NS5a PCR products were restriction enzyme digested and then ligated using standard molecular cloning techniques. The newly constructed plasmid contains the genotype 1a-specific NS5a gene where as the backbone remains 1b as described herein.
as §2, §3, §4

[6] = tested on: HCV genotype 2a-specific NS5A gene within the 1b-replicon; experiment: Luciferase replicon assay, NS5A-intergenotypic stable cell line genotype 2a; assay type: cell-based; conditions: Hepatitis C virus, read-out: EC50 2a
Excerpt: as §1, §2, §3, §4

GS4.1 cells = experiment: Cytotoxicity evaluation in GS4.1 cells (Cell Titer 96 AQueous One); assay type: cell-based, human; conditions: cellular viability
Protocol: For cytotoxicity evaluation, GS4.1 cells were treated with compounds as described above and cellular viability was monitored using the Cell Titer 96 AQueous One Solution Cell Proliferation Assay (Promega). CC50 values were determined from the % cytotoxicity versus concentration data with Tecan Magellan software as described above.

[7] = tested on: Huh-7 cells containing HCV Con1 subgenomic replicon (GS4.1 cells); experiment: HCV replicon assay (NS5A ELISA); assay type: cell-based; conditions: Hepatitis C virus, Huh-7; GS4.1 cells, 72 hrs, NS5A ELISA; read-out: EC50
Protocol: General Procedure: Huh-7 cells containing HCV Con1 subgenomic replicon (GS4.1 cells) were grown in Dulbecco's Modified Eagle Medium (DMEM) supplemented with 10% fetal bovine serum (FBS), 2 mM L-glutamine, 110 mg/L sodium pyruvate, 1× non-essential amino acids, 100 U/mL penicillin-streptomycin, and 0.5 mg/mL G418 (Invitrogen). For dose-response testing, the cells were seeded in 96-well plates at 7.5×10^3 cells/well in a volume of 50 μL, and incubated at 37° C./5% CO2. Three hours after plating, 50 μL of ten 2-fold serial dilutions of compounds (highest concentration, 75 μM) were added, and cell cultures were incubated at 37° C./5% CO2 in the presence of 0.5% DMSO. Alternatively, compounds were tested at a single concentration of 15 μM. In all cases, Huh-7 cells lacking the HCV replicon served as negative control. The cells were incubated in the presence of compounds for 72 hrs after which they were monitored for expression of the NS5A protein by enzyme-linked immunosorbent assay (ELISA). For this, the plates were then fixed for 1 min with acetone/methanol (1:1, v/v), washed twice with phosphate-buffered saline (PBS), 0.1% Tween 20, blocked for 1 hr at room temperature with TNE buffer containing 10% FBS and then incubated for 2 hr at 37° C. with the anti-NS5A mouse monoclonal antibody A-236 (ViroGen) diluted in the same buffer. After washing three times with PBS, 0.1% Tween 20, the cells were incubated 1 hr at 37° C. with anti-mouse immunoglobulin G-peroxidase conjugate in TNE, 10% FBS. After washing as described above, the reaction was developed with O-phenylenediamine (Zymed). The reaction was stopped after 30 min with 2 N H2SO4, and absorbance was read at 492 nm using Sunrise Tecan spectrophotometer. EC50 values were determined from the % inhibition versus concentration data using a sigmoidal non-linear regression analysis based on four parameters with Tecan Magellan software.

[8] = Hepatitis C virus, read-out: EC50 1a, genotype 1a

Structure (SMILES) | EC50 [1] | EC50 [2] | EC50 [3] | CC50 at 72 h [4] | EC50 [5, 8] | EC50 [6] | CC50 (GS4.1 cells) | EC50 [7] | EC50 ([5]; read-out: EC50 1a, genotype 1a)
COC(=O)NC(C(=O)N1CCCC1c1ncc(-c2cc3sc(-c4ccc5[nH]c(C6CCCN6C(=O)C(NC(=O)OC)C(C)C)nc5c4)cc3s2)[nH]1)C(C)C (stereo in doubt) [Compound A176, ((S)-1-{(S)-2-[5-(5-{(S)-2-[1-((S)-2-methoxycarbonylamino-3-methyl-butyryl)-pyrrolidin-2-yl]-3H-benzoimidazol-5-yl}-thieno[3,2-b]thiophen-2-yl)-1H-imidazol-2-yl]-pyrrolidine-1-carbonyl}-2-methyl-propyl)-carbamic acid methyl ester] | 0.1 to 1 nM | < 0.1 nM | 0.1 to 1 nM | 10 to 75 µM | 0.1 to 1 nM | 0.1 to 1 nM | – | – | –
COC(=O)N[C@H](C(=O)N1CCC[C@H]1c1ncc(-c2ccc(-c3csc4c(-c5cnc([C@@H]6CCCN6C(=O)[C@H](NC(=O)OC(C)(C)C)c6ccccc6)[nH]5)csc34)cc2)[nH]1)C(C)C [Compound A111, [(S)-1-((S)-2-{4-[4-(6-{(S)-2-[1-((R)-2-tert-butoxycarbonylamino-2-phenyl-acetyl)-pyrrolidin-2-yl]-3H-imidazol-4-yl}-thieno[3,2-b]thiophen-3-yl)-phenyl]-1H-imidazol-2-yl}-pyrrolidine-1-carbonyl)-2-methyl-propyl]-carbamic acid methyl ester] | < 0.1 nM | < 0.1 nM | < 0.1 nM | > 75 µM | – | < 0.1 nM | > 75 µM | < 1 nM | –
COC(=O)N[C@H](C(=O)N1CCCC1c1ncc(-c2csc3c(-c4ccc(-c5cnc(C6CCCN6C(=O)[C@H](NC(=O)OC)c6ccccc6)[nH]5)cc4)csc23)[nH]1)C(C)C (stereo partly drawn) [Compound A114] | < 0.1 nM | < 0.1 nM | < 0.1 nM | – | 0.1 to 1 nM | < 0.1 nM | – | – | < 0.1 nM
COC(=O)N[C@H](C(=O)N1CCC[C@H]1c1ncc(-c2ccc(-c3cc4sc(-c5cnc([C@@H]6CCCN6C(=O)[C@@H](NC(=O)OC)C(C)C)[nH]5)cc4s3)cc2)[nH]1)C(C)C [Compound A126, [(S)-1-((S)-2-{5-[4-(5-{2-[(S)-1-((S)-2-Methoxycarbonylamino-3-methyl-butyryl)-pyrrolidin-2-yl]-3H-imidazol-4-yl}-thieno[3,2-b]thiophen-2-yl)-phenyl]-1H-imidazol-2-yl}-pyrrolidine-1-carbonyl)-2-methyl-propyl]-carbamic acid methyl ester] | < 0.1 nM | < 0.1 nM | 1 to 10 nM | > 75 µM | – | 0.1 to 1 nM | > 75 µM | < 1 nM | –
COC(=O)N[C@H](C(=O)N1CCC[C@H]1c1ncc(-c2csc3c(-c4ccc5[nH]c([C@@H]6CCCN6C(=O)[C@@H](NC(=O)OC)C(C)C)nc5c4)csc23)[nH]1)C(C)C [Compound A173, ((S)-1-{(S)-2-[6-(6-{(S)-2-[1-((S)-2-methoxycarbonylamino-3-methyl-butyryl)-pyrrolidin-2-yl]-1H-imidazol-4-yl}-thieno[3,2-b]thiophen-3-yl)-1H-benzoimidazol-2-yl]-pyrrolidine-1-carbonyl}-2-methyl-propyl)-carbamic acid methyl ester] | 1 to 10 nM | < 0.1 nM | 1 to 10 nM | 10 to 75 µM | – | 1 to 10 nM | – | – | –
COC(=O)N[C@H](C(=O)N1CCC[C@H]1c1ncc(-c2ccc(-c3csc4c(-c5cnc([C@@H]6CCCN6C(=O)[C@H](NC(=O)OC)c6ccccc6)[nH]5)csc34)cc2)[nH]1)C(C)C [Compound A200, [(S)-1-((S)-2-{4-[4-(6-{2-[(S)-1-((R)-2-methoxycarbonylamino-2-phenyl-acetyl)-pyrrolidin-2-yl]-3H-imidazol-4-yl}-thieno[3,2-b]thiophen-3-yl)-phenyl]-1H-imidazol-2-yl}-pyrrolidine-1-carbonyl)-2-methyl-propyl]-carbamic acid methyl ester] | < 0.1 nM | < 0.1 nM | < 0.1 nM | > 75 µM | – | < 0.1 nM | – | – | –
COC(=O)N[C@H](C(=O)N1CCCC1c1nc(-c2cc3sc(-c4ccc(-c5cnc([C@@H]6CCCN6C(=O)[C@@H](c6ccccc6)N6CCCCC6)[nH]5)cc4)cc3o2)c[nH]1)C(C)C (stereo partly drawn) [Compound A212] | < 0.1 nM | < 0.1 nM | < 0.1 nM | 10 to 75 µM | – | < 0.1 nM | – | – | –
COC(=O)N[C@H](C(=O)N1CCC[C@H]1c1nc2ccc(-c3cc4sc(-c5ccc(-c6c[nH]c([C@@H]7CCCN7C(=O)[C@H](NC(=O)OC)c7ccccc7)n6)cc5)cc4s3)cc2[nH]1)C(C)C [Compound A215, [(S)-1-((S)-2-{6-[5-(4-{(S)-2-[1-((R)-2-methoxycarbonylamino-2-phenyl-acetyl)-pyrrolidin-2-yl]-1H-imidazol-4-yl}-phenyl)-thieno[3,2-b]thiophen-2-yl)-1H-benzoimidazol-2-yl}-pyrrolidine-1-carbonyl)-2-methyl-propyl]-carbamic acid methyl ester] | < 0.1 nM | < 0.1 nM | < 0.1 nM | > 75 µM | – | < 0.1 nM | – | – | –
COC(=O)N[C@H](C(=O)N1CCCC1c1ncc(-c2cc3sc(-c4ccc(-c5cnc([C@@H]6CCCN6C(=O)[C@H](NC(=O)OC)c6ccccc6)[nH]5)cc4)cc3s2)[nH]1)C(C)C (stereo partly drawn) [Compound A217] | < 0.1 nM | < 0.1 nM | < 0.1 nM | > 75 µM | – | < 0.1 nM | – | – | –
